Reference: US10500209B2, “Quinazolinones as bromodomain inhibitors” (Zenith Epigenetics Ltd., priority 2013, dated 2019)

How the values were obtained:
[1] = target: T1, Brd4 bromodomain 1 (BRD4(1)) (Homo sapiens, UniProt O60885); assay: Inhibition of tetra-acetylated histone H4 binding to BET bromodomains (TR-FRET); set-up: key: Active: Compounds with an IC50 value less than 30 μM were deemed to be active.; Not Active: Compounds with an IC50 value less than 30 μM were deemed to be active; conditions: first bromodomain of Brd4, tetra-acetylated histone H4 peptide
T1 construct: made in house; host or cells: E. coli BL21(DE3)
Method in brief: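 N-terminally His-tagged bromodomain (200 nM) from E. coli was mixed with biotinylated tetra-acetylated histone H4 peptide (25-50 nM), Eu-streptavidin and XL665 anti-His, plus compound, in HEPES pH 7.4 buffer with 0.2% DMSO. After 2 h at room temperature, the 665/620 nm TR-FRET decrease gave IC50 from dose-response curves.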

[2] = system: c-myc in MV4-11 cells; assay: Inhibition of c-myc expression in cancer cell lines (mRNA, real-time PCR); format: cell-based, Human; set-up: key: Active: Compounds with an IC50 value less than 30 μM were deemed to be active.; Not Active: Compounds with an IC50 value less than 30 μM were deemed to be active; conditions: 3 h
Method in brief: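 Duplex RT-qPCR of c-myc against cyclophilin cDNA gave IC50 from a dose–response curve. Input was isolated mRNA from 2.5×10^4 MV4-11 cells after 3 h exposure at 37 °C to compound or 0.1% DMSO vehicle.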

[3] = system: hIL-17 mRNA; assay: Inhibition of hIL-17 mRNA transcription in OKT3-stimulated PBMC; format: cell-based; set-up: key: Active: Compounds with an IC50 value less than 30 μM were deemed to be active.; Not Active: Compounds with an IC50 value less than 30 μM were deemed to be active; conditions: human peripheral blood mononuclear cells, OKT3 antibody, 6 h
Protocol: In this example, hIL-17 mRNA in human peripheral blood mononuclear cells was quantitated to measure the transcriptional inhibition of hIL-17 when treated with a compound of the invention.
Human peripheral blood mononuclear cells were plated (2.0×10^5 cells per well) in a 96-well plate in 45 μL OpTimizer T Cell expansion media containing 20 ng/ml IL-2 and penicillin/streptomycin. The cells were treated with the test compound (45 μL at 2x concentration), and then the cells were incubated at 37° C. for 1 h before addition of 10x stock OKT3 antibody at 10 ug/ml in media. Cells were incubated at 37° C. for 6 h before the cells were harvested. At time of harvest, cells were centrifuged (800 rpm, 5 min). Spent media was removed and cell lysis solution (70 μL) was added the cells in each well and incubated for 5-10 min at room temperature, to allow for complete cell lysis and detachment. mRNA was then prepared using the “mRNA Catcher PLUS plate” (Invitrogen), according to the protocol supplied. […]
The eluted mRNA isolated was then used in a one-step quantitative RT-PCR reaction, using components of the Ultra Sense Kit together with Applied Biosystems primer-probe mixes. Real-time PCR data was analyzed, normalizing the Ct values for hIL-17 to an internal control, prior to determining the fold induction of each unknown sample, relative to the control.

[4] = system: hIL-6 mRNA; assay: Inhibition of hIL-6 mRNA transcription in LPS-stimulated U937 macrophages; format: cell-based, human; set-up: key: Active: Compounds with an IC50 value less than 30 μM were deemed to be active.; Not Active: Compounds with an IC50 value less than 30 μM were deemed to be active; conditions: U937 cells differentiated with PMA, LPS stimulation, 3 h
Method in brief: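 U937 cells, PMA-differentiated (60 ng/mL, 3 days), pretreated 1 h with compound, then stimulated with 1 ug/mL E. coli LPS for 3 h at 37° C. hIL-6 mRNA measured by one-step qRT-PCR, normalized to internal control, as fold induction relative to control.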

[5] = system: human AML MV-4-11 cells; assay: Inhibition of cell proliferation in cancer cell lines (CellTiter Aqueous One); format: cell-based; set-up: key: Active: Compounds with an IC50 value less than 30 μM were deemed to be active.; Not Active: Compounds with an IC50 value less than 30 μM were deemed to be active; conditions: 72 h
Method in brief: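 IC50 values come from blank-corrected proliferation relative to DMSO controls, read as 490 nm absorbance 3–4 h after CellTiter Aqueous One addition. Before that, cells seeded at 5×10^4/well were exposed for 72 h (37° C, 5% CO2) to triplicate two-fold compound dilutions spanning 30–0.2 μM.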

[6] = system: hApoA-1 mRNA; assay: Up-regulation of hApoA-1 mRNA transcription in Huh7 cells; format: cell-based, human; set-up: key: Active: Compounds with an EC170 value less than 30 μM were deemed to be active; conditions: 48 h treatment
Protocol: In this example, ApoA-I mRNA in tissue culture cells was quantitated to measure the transcriptional up-regulation of ApoA-I when treated with a compound of the present disclosure.
Huh7 cells (2.5×10^5 per well) were plated in a 96-well plate using 100 μL DMEM per well, (Gibco DMEM supplemented with penicillin/streptomycin and 10% FBS), 24 h before the addition of the compound of interest. After 48 h treatment, the spent media was removed from the Huh-7 cells and placed on ice (for immediate use) or at −80° C. (for future use) with the “LDH cytotoxicity assay Kit II” from Abcam. The cells remaining in the plate were rinsed with 100 μL PBS.
Then 85 μL of cell lysis solution was added to each well and incubated for 5-10 min at room temperature, to allow for complete cell lysis and detachment. mRNA was then prepared using the “mRNA Catcher PLUS plate” from Life Technologies, according to the protocol supplied. After the last wash, as much wash buffer as possible was aspirated without allowing the wells to dry. Elution Buffer (E3, 80 μL) was then added to each well. mRNA was then eluted by incubating the mRNA Catcher PLUS plate with Elution Buffer for 5 min at 68° C., and then 1 min at 4° C. Catcher plates with mRNA eluted were kept on ice for use or stored at −80° C.
The eluted mRNA isolated was then used in a one-step real-time PCR reaction, using components of the Ultra Sense Kit together with Life Technologies primer-probe mixes. Real-time PCR data was analyzed, using the Ct values, to determine the fold induction of each unknown sample, relative to the control (that is, relative to the control for each independent DMSO concentration).
Compounds with an EC170 value less than 30 μM were deemed to be active.

| FRET activity BRD4(1) [1] | c-myc activity (IC50 < 30 μM) [2] | IL-17 activity (IC50 < 30 μM) [3] | IL-6 activity (IC50 < 30 μM) [4] | Cell Proliferation activity (IC50 < 30 μM) [5] | melting point | Compound | ApoA-1 activity (EC170 < 30 μM) [6] |
| --- | --- | --- | --- | --- | --- | --- | --- |
| Active | Active | Active | Active | Active | – | COc1ccc(-c2nc3cc(OC)cc(OC)c3c(=O)[nH]2)c(NC2CCN(C(=O)C(C)C)CC2)c1 [Example 19, 2-(2-((1-Isobutyrylpiperidin-4-yl)amino)-4-methoxyphenyl)-5,7-dimethoxyquinazolin-4(3H)-one] | – |
| Active | Active | – | Active | Active | 192 to 193 °C | COc1cnc(-c2nc3cc(OC)cc(OC)c3c(=O)[nH]2)c(NC2CCN(C(=O)C(C)C)CC2)c1 [Example 32, 2-(3-((1-Isobutyrylpiperidin-4-yl)amino)-5-methoxypyridin-2-yl)-5,7-dimethoxyquinazolin-4(3H)-one] | Active |
